According to PMC3687097 (Diabetes Therapy, 2013):
“Also recorded” adds a separate entry of the source. Like-named read-outs stand apart in the source and are kept apart here.

Columns and labels:
[1] = for Patients reporting an adverse event: 22 patients
[2] = cited from earlier work

| Compound | Episodes of hypoglycemia ([1]; dapagliflozin 10 mg single oral dose, with and without voglibose) | Patients reporting an adverse event ([1]; pharmacokinetic sampling period 1: dapagliflozin with voglibose) | Patients reporting an adverse event ([1]; pharmacokinetic sampling period 2: dapagliflozin only) | Intensity of observed AEs ([1]; whole study, dapagliflozin 10 mg with or without voglibose) | Systemic / gastrointestinal absorption after oral administration [2] |
| --- | --- | --- | --- | --- | --- |
| CCOc1ccc(Cc2cc([C@@H]3O[C@H](CO)[C@@H](O)[C@H](O)[C@H]3O)ccc2Cl)cc1 [Dapagliflozin] | no episodes of hypoglycemia | one patient | three patients | mild or moderate |  |
| OCC(CO)N[C@H]1C[C@](O)(CO)[C@@H](O)[C@H](O)[C@H]1O [Voglibose] |  |  |  |  | poorly absorbed; also recorded: minimal systemic absorption |
